According to ChEMBL document CHEMBL1149856, “Insulinomimetic effect of kaempferol 3-neohesperidoside on the rat soleus muscle” (2008):
The source made the active and inactive calls. The calls are words filed in the database; no cut-off is given here.

How the values were obtained:
[1] = system: Soleus muscle; assay: Inhibition of 14C-glucose uptake in Wistar rat soleus muscle at 1 nM in presence of LY-294002; assay type: functional, tissue-based
[2] = system: Soleus muscle; assay: Inhibition of 14C-glucose uptake in Wistar rat soleus muscle at 1 nM in presence of RO318220; assay type: functional, tissue-based
[3] = system: Soleus muscle; assay: Stimulation of 14C-glucose uptake in Wistar rat soleus muscle at 1 nM in presence of PD-98059; assay type: functional, tissue-based
[4] = system: Soleus muscle; assay: Stimulation of 14C-glucose uptake in Wistar rat soleus muscle at 1 nM in presence of cycloheximide; assay type: functional, tissue-based
[5] = system: Rattus norvegicus; assay: Increase in glycogen level in diabetic Wistar rat soleus muscle at 100 mg/kg after 24 hrs; assay type: functional
[6] = Stimulation of 14C-glucose uptake in Wistar rat soleus muscle at 1 nM
[7] = Stimulation of 14C-glucose uptake in Wistar rat soleus muscle at 100 nM

Structure (SMILES): C[C@H]1O[C@H](O[C@H]2[C@H](Oc3c(-c4ccc(O)cc4)oc4cc(O)cc(O)c4c3=O)O[C@H](CO)[C@@H](O)[C@@H]2O)[C@@H](O)[C@@H](O)[C@@H]1O
- Activity [1]: Active
- Activity [2]: Active
- Activity [3]: Active
- Activity [4]: Active
- Activity [5]: 380%
- Activity [6]: 35%
- Activity [7]: 21%
